Converted amounts (≈) assume the structure as drawn. Like-named read-outs stand apart in the source and are kept apart here.
What was measured:
Candida albicans CBS 562 = type: cell-based
Candida albicans 607 = type: cell-based
Candida albicans 615 = type: cell-based
[1] = test system: Aspergillus fumigatus 64026; type: cell-based
Candida glabrata 4681 = type: cell-based; settings: Table 1, footnote c
Candida glabrata 4787 = type: cell-based
Candida glabrata 4210 = type: cell-based; settings: Table 1, footnote c
[2] = test system: Candida glabrata 4475 (resistant to azoles); type: cell-based; settings: Table 1, footnote c
male ICR mice = settings: mice that received the MTD
in vivo = settings: male, ICR, mouse, iv

Molecule | MIC (Candida albicans CBS 562; CBS562, Table 1, read-out: MIC) | MIC (Candida albicans 607; Table 1, read-out: MIC) | MIC (Candida albicans 615; Table 1, read-out: MIC) | MIC ([1]; Table 1, read-out: MIC) | MIC (Candida albicans CBS 562; Table 1) | MIC (Candida albicans 607; Table 1) | MIC (Candida albicans 615; Table 1) | other results
C[C@@H]1[C@H](O)[C@@H](C)/C=C/C=C/C=C/C=C/C=C/C=C/C=C/[C@H](O[C@@H]2O[C@H](C)[C@@H](O)[C@H](N)[C@@H]2O)C[C@@H]2O[C@](O)(C[C@@H](O)C[C@@H](O)[C@H](O)CC[C@@H](O)C[C@@H](O)CC(=O)O[C@H]1C)C[C@H](O)[C@H]2C(=O)O [CAF1, Amphotericin B, reference compound] | – | – | – | – | 0.54 µM (≈ 0.499 µg/mL) | 0.27 µM (≈ 0.25 µg/mL) | 0.27 µM (≈ 0.25 µg/mL) | MIC ([1]; Table 1): 0.5 µM (≈ 0.462 µg/mL)
CCCCCCCCCCCN(C)C [K-I1, dimethyl-undecyl-amine cyanobromoborane] | – | – | – | – | – | – | – | MIC (Candida albicans CBS 562; Candida albicans, CBS562, Table 1 column A, read-out: MIC): 49 µM (≈ 9.77 µg/mL); MIC (Candida albicans 607; Candida albicans, 607, Table 1 column B, read-out: MIC): 49 µM (≈ 9.77 µg/mL); MIC (Candida albicans 615; Candida albicans, 615, Table 1 column C, read-out: MIC): 49 µM (≈ 9.77 µg/mL); MIC ([1]; Aspergillus fumigatus, 64026, Table 1 column I, read-out: MIC): 131 µM (≈ 26.1 µg/mL)
CCCCCCCCCCCN(C)C [K-I4, dimethyl-undecyl-amine cyanofluoroborane] | – | – | – | – | 64 µM (≈ 12.8 µg/mL) | 64 µM (≈ 12.8 µg/mL) | 64 µM (≈ 12.8 µg/mL) | MIC ([1]; Table 1): 129 µM (≈ 25.7 µg/mL)
C[N+](C)(C)[B-](Br)(Br)C#N [K-E, trimethyl-amine cyanodibromoborane] | – | – | – | – | 1970 µM (≈ 504 µg/mL) | >1970 µM | >1970 µM | MIC (Candida glabrata 4210): 500^c μg per liter; MIC [2]: >500^c μg per liter
CCCCCCCCCCCN(C)C [K-I3, dimethyl-undecyl-amine cyanofluorobromoborane] | – | – | – | – | – | – | – | MIC (Candida albicans CBS 562; Candida albicans, CBS562, 24 h, Table 1, read-out: MIC): 7.8 µM (≈ 1.56 µg/mL)
N,N,N′,N′-tetramethyl- decane-1,10-diamine bis- cyanobromoborane [K-J1] | – | – | – | – | 140 µM | 140 µM | 140 µM | MIC (Candida glabrata 4210): 65^c μg per liter; MIC [2]: 65^c μg per liter; MIC (Candida glabrata 4681): 65^c μg per liter; MIC (Candida glabrata 4787; Table 1): 65 µM
N,N,N′,N′-tetramethyl- decane-1,10-diamine bis- carboxyborane [K-J3] | – | – | – | – | 188 µM | 188 µM | 907 µM | MIC (Candida glabrata 4210): 65^c μg per liter; MIC [2]: 31.2^c μg per liter; MIC (Candida glabrata 4681): 65^c μg per liter; MIC (Candida glabrata 4787; Table 1): 65 µM
CCCCCCCCCCCN(C)C [K-I2, dimethyl-undecyl-amine cyanodibromoborane] | – | – | – | – | 39 µM (≈ 7.78 µg/mL) | 39 µM (≈ 7.78 µg/mL) | 39 µM (≈ 7.78 µg/mL) | MIC (Candida glabrata 4681): 32^c μg per liter; MIC (Candida glabrata 4787; Table 1): 32 µM (≈ 6.38 µg/mL); MIC ([1]; Table 1): 79 µM (≈ 15.8 µg/mL); clinical signs, body weights and gross necropsy (day 8) (male ICR mice): No changes; MTD (in vivo): 73.1 µmol/kg
C[N+](C)(CCCCCCCCCC[N+](C)(C)[B-](Br)(Br)C#N)[B-](Br)(Br)C#N [K-J2, N,N,N′,N′-tetramethyl-decane-1,10-diamine bis-cyanodibromoborane] | – | – | – | – | 104 µM (≈ 64.7 µg/mL) | 104 µM (≈ 64.7 µg/mL) | 104 µM (≈ 64.7 µg/mL) | MIC (Candida glabrata 4210): 65^c μg per liter; MIC [2]: 65^c μg per liter; MIC (Candida glabrata 4681): 65^c μg per liter; MIC (Candida glabrata 4787; Table 1): 65 µM (≈ 40.4 µg/mL)

Second part, led by results:

MIC (Candida albicans CBS 562; CBS562, Table 1, read-out: MIC) | MIC (Candida albicans 607; Table 1, read-out: MIC) | MIC (Candida albicans 615; Table 1, read-out: MIC) | MIC ([1]; Table 1, read-out: MIC) | Molecule | MIC (Candida albicans CBS 562; Table 1) | MIC (Candida albicans 607; Table 1) | MIC (Candida albicans 615; Table 1) | other results
43 µM (≈ 12.2 µg/mL) | 43 µM (≈ 12.2 µg/mL) | 43 µM (≈ 12.2 µg/mL) | 86 µM (≈ 24.5 µg/mL) | CN(C)CCCCCCCCCCCCCCN(C)C [K-N, N,N,N′,N′-tetramethyl-tetradecane-1,14-diamine bis-cyanoborane] | – | – | – | –
2210 µM (≈ 414 µg/mL) | 1100 µM (≈ 206 µg/mL) | 1100 µM (≈ 206 µg/mL) | – | CCCCCCC(C)(O)CN(C)C (centres unmarked) [K-O, 1-dimethylamino-2-methyl-octan-2-ol cyanoborane] | – | – | – | –
470 µM (≈ 46.6 µg/mL) | 3620 µM (≈ 359 µg/mL) | > 3620 µM | > 3620 µM | C=CCCN(C)C [K-D, but-3-enyl-dimethyl-amine cyanoborane] | – | – | – | –
96 µM (≈ 24.6 µg/mL) | 194 µM (≈ 49.8 µg/mL) | 46 µM (≈ 11.8 µg/mL) | – | CN(C)CCCCCCCCCCCCN(C)C [K-M, N,N,N′,N′-tetramethyl-dodecane-1,12-diamine bis-cyanoborane] | – | – | – | MIC (Candida glabrata 4681): 125^c μg per liter; MIC (Candida glabrata 4787; Nakaseomyces glabratus, Table 1, read-out: MIC): 250 µM (≈ 64.1 µg/mL)
94 µM (≈ 12 µg/mL) | 94 µM (≈ 12 µg/mL) | 94 µM (≈ 12 µg/mL) | 94 µM (≈ 12 µg/mL) | C=CCCCCN(C)C [K-V, hex-5-enyl-dimethyl-amine cyanoborane] | – | – | – | –
810 µM (≈ 93.3 µg/mL) | 3240 µM (≈ 373 µg/mL) | 3240 µM (≈ 373 µg/mL) | 3240 µM (≈ 373 µg/mL) | CCCCCN(C)C [K-H, pentyl-dimethyl-amine cyanoborane] | – | – | – | –
3570 µM (≈ 361 µg/mL) | > 3570 µM | > 3570 µM | > 3570 µM | CCCCN(C)C [K-G, butyl-dimethyl-amine cyanoborane] | – | – | – | –
1.6 µM (≈ 0.49 µg/mL) | 1.6 µM (≈ 0.49 µg/mL) | 1.6 µM (≈ 0.49 µg/mL) | > 208 µM | OC(Cn1cncn1)(Cn1cncn1)c1ccc(F)cc1F [CAF2, Fluconazole, reference compound] | – | – | – | –
492 µM (≈ 106 µg/mL) | 492 µM (≈ 106 µg/mL) | 983 µM (≈ 212 µg/mL) | 492 µM (≈ 106 µg/mL) | CCCCCCCCCC(O)CN(C)C (centres unmarked) [K-U, 1-dimethylamino-undecan-2-ol cyanoborane] | – | – | – | –
